# Assay results from ChEMBL document CHEMBL1123761, “Inhibition of the mammalian beta-lactamase renal dipeptidase (dehydropeptidase-I) by (Z)-2-(acylamino)-3-substituted-propenoic acids” (J Med Chem, 1987).
# Target: T1, Dipeptidase 1 (Sus scrofa, UniProt P22412)
# T1 sequence (P22412 whole entry): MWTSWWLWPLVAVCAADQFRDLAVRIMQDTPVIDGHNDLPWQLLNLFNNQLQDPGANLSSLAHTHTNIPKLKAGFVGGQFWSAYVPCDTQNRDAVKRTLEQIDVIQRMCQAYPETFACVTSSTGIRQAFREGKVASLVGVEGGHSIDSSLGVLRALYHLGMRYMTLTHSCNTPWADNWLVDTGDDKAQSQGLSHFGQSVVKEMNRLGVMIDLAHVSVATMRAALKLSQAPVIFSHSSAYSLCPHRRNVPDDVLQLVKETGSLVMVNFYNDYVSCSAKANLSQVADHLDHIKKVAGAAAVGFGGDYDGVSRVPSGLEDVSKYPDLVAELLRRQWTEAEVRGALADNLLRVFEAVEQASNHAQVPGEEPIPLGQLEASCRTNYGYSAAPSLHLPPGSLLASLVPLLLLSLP
# Assay: Inhibitory activity against beta-lactamase renal dipeptidase
row,SMILES,Ki [nM]
1,CCN(CC)CCCCC/C=C(\NC(=O)C1CC1(C)C)C(=O)O (stereo not drawn),860
2,CC1(C)CC1C(=O)N/C(=C\CC(F)(F)F)C(=O)O (stereo not drawn),240
3,C/C=C(\NC(=O)CCCCCCCCCCC)C(=O)O,35000
4,CC1(C)CC1C(=O)N/C(=C\CCCCSCC(=O)O)C(=O)O (stereo not drawn),130
5,CC(NCCCCC/C=C(\NC(=O)[C@H]1CC1(C)C)C(=O)O)P(=O)(O)O (stereo partly drawn),160
6,C/C=C(\NC(=O)C1CC1)C(=O)O,3000
7,C/C=C(\NC(=O)CC(C)CCCC(C)C)C(=O)O (stereo not drawn),4000
8,C/C=C(\NC(=O)CSCC)C(=O)O,31000
9,CC1(C)CC1C(=O)N/C(=C\CCCSCC(N)C(=O)O)C(=O)O (stereo not drawn),270
10,CCC/C=C(\NC(=O)C1CC1(Br)Br)C(=O)O (stereo not drawn),15
11,CC1(C)CC1C(=O)N/C(=C\CCCCCSCC(N)C(=O)O)C(=O)O (stereo not drawn),230
12,C/C=C(\NC(=O)CCCCCCCC)C(=O)O,32000
13,C/C=C(\NC(=O)C1CCCCCC1)C(=O)O,12000
14,CC1(C)CC1C(=O)N/C(=C\CCCCCNCCP(=O)(O)O)C(=O)O (stereo not drawn),580
15,CC1(C)CC1C(=O)N/C(=C\CCCCCCCBr)C(=O)O (stereo not drawn),110
16,C[N+](C)(C)CCCCC/C=C(\NC(=O)C1CC1(Cl)Cl)C(=O)O (stereo not drawn),180
17,C/C=C(\NC(=O)C1CC1(F)F)C(=O)O (stereo not drawn),2100
18,CC1(C)C[C@@H]1C(=O)N/C(=C\CCCCSC[C@H](N)C(=O)O)C(=O)O (stereo in doubt; 176) [CILASTATIN],110
19,CN(CCCCCC/C=C(\NC(=O)C1CC1(C)C)C(=O)O)CC(=O)O (stereo not drawn),400
20,CC1(C)CC1C(=O)N/C(=C\CCCCCCC[N+](C)(C)Cc1ccccc1)C(=O)[O-] (stereo not drawn),450
21,CC1(C)CC1C(=O)N/C(=C\CCCCSc1ncccc1O)C(=O)O (stereo not drawn),20
22,CC1(C)CC1C(=O)N/C(=C\CCCCCO)C(=O)O (stereo not drawn),230
23,C/C=C(\NC(=O)c1ccccc1)C(=O)O,70000
24,C/C=C(\NC(=O)CCCc1cccs1)C(=O)O,10000

row,SMILES,Ki [nM]
1,CC1(C)CC1C(=O)N/C(=C\CCCCCCBr)C(=O)O (stereo not drawn),160
2,C/C=C(\NC(=O)c1cccc(Cl)c1)C(=O)O,22000
3,COCCCC/C=C(\NC(=O)C1CC1(C)C)C(=O)O (stereo not drawn),160
4,CC1(C)CC1C(=O)N/C(=C\CCCCCNC(N)=O)C(=O)O (stereo not drawn),300
5,CC1(C)CC1C(=O)N/C(=C\CCCCCBr)C(=O)O (stereo not drawn),270
6,C/C=C(\NC(=O)[C@H]1[C@H](C)[C@@H]1C)C(=O)O,4600
7,CN(CCCC/C=C(\NC(=O)C1CC1(C)C)C(=O)O)CC(=O)O (stereo not drawn),560
8,CC1(C)CC1C(=O)N/C(=C\CCCCCC#N)C(=O)O (stereo not drawn),82
9,CCCCC/C=C(/NC(=O)C1CC1(C)C)C(=O)O (stereo not drawn),11200
10,C/C=C(\NC(=O)CCCC(=O)OCC)C(=O)O,39000
11,CC1(C)CC1C(=O)N/C(=C\CCCCSc1ncccc1C(=O)O)C(=O)O (stereo not drawn),40
12,CC1(C)CC1C(=O)N/C(=C\CCCCCSCC(N)=O)C(=O)O (stereo not drawn),250
13,CC1(C)CC1C(=O)N/C(=C\CCCCC#N)C(=O)O (stereo not drawn),210
14,CC1(C)CC1C(=O)N/C(=C\CCCCS(=O)(=O)O)C(=O)O (stereo not drawn),87
15,CC1(C)CC1C(=O)N/C(=C\C1CC1)C(=O)O (stereo not drawn),440
16,CC1(C)CC1C(=O)N/C(=C\CCCCCC/C=C(\NC(=O)C1CC1(C)C)C(=O)O)C(=O)O (stereo not drawn),92
17,CNC(CSCCCC/C=C(\NC(=O)[C@H]1CC1(C)C)C(=O)O)C(=O)O (stereo partly drawn),150
18,CC(C)CC(=O)N/C(=C\CCC(=O)O)C(=O)O,2700
19,CCCCCCCC/C=C(\NC(=O)C1CC1(C)C)C(=O)O (stereo not drawn),110
20,CCCCC/C=C(\NC(=O)[C@@H]1CC1(C)C)C(=O)O,8800
21,C=C(NC(=O)C1CC1(C)C)C(=O)O (stereo not drawn),52000
22,C/C=C(\NC(=O)C1CC12CC2)C(=O)O (stereo not drawn),1600
23,C/C=C(\NC(=O)CCCCCBr)C(=O)O,19000
24,C/C=C(\NC(=O)CC(C)(C)C)C(=O)O,20000

row,SMILES,Ki [nM]
1,CCCCC/C=C(\NC(=O)C1CC1(Cl)Cl)C(=O)O (stereo not drawn),60
2,C/C=C(\NC(=O)c1ccccc1Cl)C(=O)O,25000
3,CCCCCCC/C=C(\NC(=O)C1CC1(C)C)C(=O)O (stereo not drawn),96
4,CC1(C)CC1C(=O)N/C(=C\CCCCBr)C(=O)O (stereo not drawn),150
5,C/C=C(\NC(=O)[C@H]1[C@@H]2CCCC[C@@H]21)C(=O)O,4200
6,CC1(C)CC1C(=O)N/C(=C\CCCCC[n+]1ccccc1)C(=O)[O-] (stereo not drawn),1090
7,CN(C)CCCC/C=C(\NC(=O)C1CC1(C)C)C(=O)O (stereo not drawn),3450
8,CC1(C)CC1C(=O)N/C(=C\CCCCCNCP(=O)(O)O)C(=O)O (stereo not drawn),400
9,CC1(C)CC1C(=O)N/C(=C\CCCCC[N+](C)(C)CCO)C(=O)[O-] (stereo not drawn),910
10,C/C=C(\NC(=O)[C@@H]1C[C@@H]1C)C(=O)O,12000
11,CC1(C)CC1C(=O)N/C(=C\CCCCCNC=N)C(=O)O (stereo not drawn),780
12,C/C=C(\NC(=O)CCC(C)C)C(=O)O,14000
13,CC1(C)CC1C(=O)N/C(=C\CCCCSc1ccccc1C(=O)O)C(=O)O (stereo not drawn),60
14,C/C=C(\NC(=O)C1CC1(Br)Br)C(=O)O (stereo not drawn),30
15,CCCCCCCCC/C=C(\NC(=O)C1CC1(C)C)C(=O)O (stereo not drawn),110
16,CC1(C)CC1C(=O)N/C(=C\CCCSc1ncccc1O)C(=O)O (stereo not drawn),130
17,CC1(C)CC1C(=O)N/C(=C\CCCSCP(=O)(O)O)C(=O)O (stereo not drawn),220
18,CC1(C)CC1C(=O)N/C(=C\CCCCCNC1=NCCN1)C(=O)O (stereo not drawn),840
19,C/C=C(\NC(=O)[C@@H]1C[C@H]1c1ccccc1)C(=O)O,5000
20,C/C=C(\NC(=O)[C@@H]1C[C@H]1C(C)(C)C)C(=O)O,6500
21,C/C=C(\NC(=O)C(C)C(C)C)C(=O)O (stereo not drawn),3300
22,C/C=C(\NC(=O)C1CC1(Cl)Cl)C(=O)O (stereo not drawn),80
23,CC1(C)C[C@@H]1C(=O)N/C(=C\CCCCSC[C@H](N)C(=O)O)C(=O)O (stereo in doubt; 174) [CILASTATIN],210
24,C/C=C(\NC(=O)CCCNC(=O)CC(C)C)C(=O)O,52000

row,SMILES,Ki [nM]
1,CC1(C)CC1C(=O)N/C(=C\CCCCCCCN)C(=O)O (stereo not drawn),810
2,C/C=C(\NC(=O)CCCCC(=O)OCC)C(=O)O,18000
3,C/C=C(\NC(=O)C1CCC1C)C(=O)O (stereo not drawn),4700
4,COCCCCC/C=C(\NC(=O)C1CC1(C)C)C(=O)O (stereo not drawn),180
5,C/C=C(\NC(=O)[C@@H]1C[C@H]1C)C(=O)O,1700
6,CSCCCCC/C=C(\NC(=O)C1CC1(C)C)C(=O)O (stereo not drawn),150
7,C=CCCCCCCCCC(=O)N/C(=C\C)C(=O)O,34000
8,C=CCNCCCCC/C=C(\NC(=O)C1CC1(C)C)C(=O)O (stereo not drawn),870
9,CC1(C)CC1C(=O)N/C(=C\CCC(=O)O)C(=O)O (stereo not drawn),140
10,C/C=C(\NC(=O)C1(C)CC1(Cl)Cl)C(=O)O (stereo not drawn),164000
11,CC1(C)CC1C(=O)N/C(=C\CCCCSc1ccccc1)C(=O)O (stereo not drawn),100
12,CC1(C)CC1C(=O)N/C(=C\CCCCCCC[N+](C)(C)C)C(=O)[O-] (stereo not drawn),570
13,COC(=O)CSCCCCC/C=C(\NC(=O)C1CC1(C)C)C(=O)O (stereo not drawn),200
14,C/C=C(\NC(=O)CC1CCCC1)C(=O)O,9800
15,CC1(C)CC1C(=O)N/C(=C\CCCBr)C(=O)O (stereo not drawn),380
16,C/C=C(\NC(=O)C=C(C)C)C(=O)O,28000
17,C/C=C(\NC(=O)CCCCCCCCCC)C(=O)O,19000
18,CCOC(=S)SCCCCC/C=C(\NC(=O)C1CC1(C)C)C(=O)O (stereo not drawn),44
19,C/C=C(\NC(=O)C1C(C)C1(C)C)C(=O)O (stereo not drawn),7200
20,CCCCCC/C=C(\NC(=O)C1CC1(C)C)C(=O)O (stereo not drawn),160
21,CC1(C)C[C@@H]1C(=O)N/C(=C\CCCCCNC(C)(C)P(=O)(O)O)C(=O)O,180
22,CC1(C)CC1C(=O)N/C(=C\CCCCCS)C(=O)O (stereo not drawn),170
23,C/C=C(\NC(=O)CC(C)CCCC(C)(C)O)C(=O)O (stereo not drawn),67000
24,CN(CCCCC/C=C(\NC(=O)C1CC1(C)C)C(=O)O)CC(=O)O (stereo not drawn),290

row,SMILES,Ki [nM]
1,CN(C)CCCCCCC/C=C(\NC(=O)C1CC1(C)C)C(=O)O (stereo not drawn),520
2,C/C=C(\NC(=O)C1CC(C)(C)C1)C(=O)O,11200
3,CC1(C)CC1C(=O)N/C(=C\CCCCSCC(=O)C(=O)O)C(=O)O (stereo not drawn),160
4,CC(NCCCCC/C=C(\NC(=O)C1CC1(C)C)C(=O)O)P(=O)(O)O (stereo not drawn),280
5,CC(=O)NC(CSCCCC/C=C(\NC(=O)[C@H]1CC1(C)C)C(=O)O)C(=O)O (stereo partly drawn),60
6,CC(=O)NCCCCC/C=C(\NC(=O)C1CC1(C)C)C(=O)O (stereo not drawn),230
7,C/C=C(\NC(=O)CC1CCCCC1)C(=O)O,25000
8,CC1(C)CC1C(=O)N/C(=C\C1CCCCC1)C(=O)O (stereo not drawn),400
9,C/C=C(\NC(=O)C1CCCCC1)C(=O)O,15000
10,C/C=C(\NC(=O)CCCCCCCCC(=O)O)C(=O)O,28000
11,CC1(C)C[C@@H]1C(=O)N/C(=C\CCCCC[N+](C)(C)C)C(=O)[O-],650
12,CC1(C)CC1C(=O)N/C(=C\CCCCCN)C(=O)O (stereo not drawn),1000
13,C/C=C(\NC(=O)[C@@H]1C[C@H]1CC)C(=O)O,1600
14,CC1(C)C[C@@H]1C(=O)N/C(=C\CCCCSC[C@H](N)C(=O)O)C(=O)O (stereo in doubt; 175) [CILASTATIN],190
15,C=CCC/C=C(\NC(=O)C1CC1(C)C)C(=O)O (stereo not drawn),230
16,COC(=O)CSCCC/C=C(\NC(=O)C1CC1(C)C)C(=O)O (stereo not drawn),280
17,C#CCNCCCCC/C=C(\NC(=O)C1CC1(C)C)C(=O)O (stereo not drawn),740
18,C/C=C(\NC(=O)CCCCCNC(=O)CC)C(=O)O,41000
19,C/C=C(\NC(=O)CCCCC(=O)N/C(=C\C)C(=O)O)C(=O)O,10000
20,CC1(C)CC1C(=O)N/C(=C\CCCCC(=O)O)C(=O)O (stereo not drawn),58
21,CN(C)CCCCC/C=C(\NC(=O)C1CC1(C)C)C(=O)O (stereo not drawn),1280
22,C/C=C(\NC(=O)CCCCC#N)C(=O)O,25000
